{
  "source": "ChEMBL document CHEMBL5247625",
  "about": "“Discovery and characterization of novel potent BCR-ABL degraders by conjugating allosteric inhibitor” (Eur J Med Chem, 2022)",
  "key": {"[1]": {"biological_target": "T1, Protein cereblon/Tyrosine-protein kinase ABL1/Breakpoint cluster region protein (Homo sapiens, UniProt P00519+P11274+Q96SW2)", "T1 sequence (P00519 whole entry, looked up)": "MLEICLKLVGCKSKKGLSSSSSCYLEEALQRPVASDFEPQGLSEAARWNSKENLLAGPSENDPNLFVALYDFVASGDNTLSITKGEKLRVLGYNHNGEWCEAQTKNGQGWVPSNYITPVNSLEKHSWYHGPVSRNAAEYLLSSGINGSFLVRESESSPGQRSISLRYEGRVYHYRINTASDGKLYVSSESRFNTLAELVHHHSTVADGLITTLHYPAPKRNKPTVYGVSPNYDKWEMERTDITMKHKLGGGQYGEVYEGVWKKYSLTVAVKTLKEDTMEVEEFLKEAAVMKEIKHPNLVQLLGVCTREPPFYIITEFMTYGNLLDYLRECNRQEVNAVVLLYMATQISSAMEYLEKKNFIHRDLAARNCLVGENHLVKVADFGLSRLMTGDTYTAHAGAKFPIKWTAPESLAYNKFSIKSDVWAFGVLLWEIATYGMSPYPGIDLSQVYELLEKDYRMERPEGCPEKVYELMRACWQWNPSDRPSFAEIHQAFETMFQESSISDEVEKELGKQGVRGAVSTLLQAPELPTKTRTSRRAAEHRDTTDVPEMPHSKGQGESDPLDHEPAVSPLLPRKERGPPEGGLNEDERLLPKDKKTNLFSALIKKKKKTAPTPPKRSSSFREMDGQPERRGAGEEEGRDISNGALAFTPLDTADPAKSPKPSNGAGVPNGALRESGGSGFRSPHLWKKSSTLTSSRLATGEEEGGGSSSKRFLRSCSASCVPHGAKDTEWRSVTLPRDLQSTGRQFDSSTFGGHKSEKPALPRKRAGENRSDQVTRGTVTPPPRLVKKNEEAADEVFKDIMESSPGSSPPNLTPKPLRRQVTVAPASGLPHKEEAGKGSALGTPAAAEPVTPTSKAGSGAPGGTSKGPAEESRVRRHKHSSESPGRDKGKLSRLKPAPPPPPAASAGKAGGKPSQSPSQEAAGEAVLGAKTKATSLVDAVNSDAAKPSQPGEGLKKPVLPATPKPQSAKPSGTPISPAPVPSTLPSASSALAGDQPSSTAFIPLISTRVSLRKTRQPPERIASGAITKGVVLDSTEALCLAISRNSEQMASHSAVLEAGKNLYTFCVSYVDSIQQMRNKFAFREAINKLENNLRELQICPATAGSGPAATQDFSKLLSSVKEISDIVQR", "T1 sequence (P11274 whole entry, looked up)": "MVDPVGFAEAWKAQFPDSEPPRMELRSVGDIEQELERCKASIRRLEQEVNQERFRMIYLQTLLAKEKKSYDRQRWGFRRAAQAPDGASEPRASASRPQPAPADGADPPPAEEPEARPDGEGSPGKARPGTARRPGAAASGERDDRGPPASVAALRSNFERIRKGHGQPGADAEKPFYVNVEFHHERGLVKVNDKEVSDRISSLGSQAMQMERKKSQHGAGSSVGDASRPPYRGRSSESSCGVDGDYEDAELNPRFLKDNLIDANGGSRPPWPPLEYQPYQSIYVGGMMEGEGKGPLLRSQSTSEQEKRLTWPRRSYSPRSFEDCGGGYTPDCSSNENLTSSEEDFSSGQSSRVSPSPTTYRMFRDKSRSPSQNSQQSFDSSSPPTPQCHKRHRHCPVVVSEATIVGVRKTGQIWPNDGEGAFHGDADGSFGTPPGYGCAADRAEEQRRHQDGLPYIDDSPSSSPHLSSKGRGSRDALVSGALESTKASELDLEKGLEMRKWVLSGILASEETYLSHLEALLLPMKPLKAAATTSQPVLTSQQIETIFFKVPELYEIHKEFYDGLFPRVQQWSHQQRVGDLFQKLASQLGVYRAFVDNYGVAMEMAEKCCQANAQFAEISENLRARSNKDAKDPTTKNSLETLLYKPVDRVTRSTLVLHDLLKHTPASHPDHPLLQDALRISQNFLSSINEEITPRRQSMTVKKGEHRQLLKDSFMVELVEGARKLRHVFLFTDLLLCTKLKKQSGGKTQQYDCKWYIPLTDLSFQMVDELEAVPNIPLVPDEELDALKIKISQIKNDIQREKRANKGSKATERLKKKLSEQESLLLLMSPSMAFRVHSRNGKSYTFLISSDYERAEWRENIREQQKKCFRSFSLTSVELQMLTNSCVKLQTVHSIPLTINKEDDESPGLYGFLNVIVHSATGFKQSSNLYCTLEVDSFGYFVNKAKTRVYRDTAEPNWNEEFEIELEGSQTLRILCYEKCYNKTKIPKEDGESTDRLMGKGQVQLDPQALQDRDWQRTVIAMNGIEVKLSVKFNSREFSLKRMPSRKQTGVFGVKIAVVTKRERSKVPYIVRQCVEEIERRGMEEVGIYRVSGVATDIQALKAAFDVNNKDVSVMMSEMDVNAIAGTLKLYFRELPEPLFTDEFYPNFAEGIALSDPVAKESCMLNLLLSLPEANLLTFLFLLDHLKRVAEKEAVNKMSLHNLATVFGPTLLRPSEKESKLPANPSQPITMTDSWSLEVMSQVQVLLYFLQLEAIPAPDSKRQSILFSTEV", "T1 sequence (Q96SW2 whole entry, looked up)": "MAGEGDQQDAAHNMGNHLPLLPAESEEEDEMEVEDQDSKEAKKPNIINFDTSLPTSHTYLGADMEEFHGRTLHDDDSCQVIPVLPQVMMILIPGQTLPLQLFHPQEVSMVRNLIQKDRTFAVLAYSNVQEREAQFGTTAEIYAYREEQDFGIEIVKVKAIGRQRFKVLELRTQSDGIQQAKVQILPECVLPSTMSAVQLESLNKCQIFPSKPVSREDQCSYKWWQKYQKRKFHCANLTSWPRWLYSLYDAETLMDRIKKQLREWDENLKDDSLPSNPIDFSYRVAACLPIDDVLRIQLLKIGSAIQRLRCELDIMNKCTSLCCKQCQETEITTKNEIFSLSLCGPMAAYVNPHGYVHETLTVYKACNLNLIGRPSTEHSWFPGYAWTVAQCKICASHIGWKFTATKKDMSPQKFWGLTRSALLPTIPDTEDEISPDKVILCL", "assay": "Protac activity at CRBN/BCR-ABL in human K562 cells assessed as induction of BCR-ABL degradation at 100 nM by Western blotting analysis", "format": "cell-based", "conditions": "time 4.0 hrs, TDE = time-dependent effect"}, "[2]": {"biological_target": "T1, Protein cereblon/Tyrosine-protein kinase ABL1/Breakpoint cluster region protein", "assay": "Protac activity at CRBN/BCR-ABL in human K562 cells assessed as induction of BCR-ABL degradation at 100 nM pretreated with lenalidomide for 2 hrs followed by compound addition measured after 8 hrs by Western blotting analysis", "format": "cell-based", "conditions": "time 10.0 hrs"}, "[3]": {"biological_target": "T1, Protein cereblon/Tyrosine-protein kinase ABL1/Breakpoint cluster region protein", "assay": "Protac activity at CRBN/BCR-ABL in human K562 cells assessed as c-ABL turnover rate in presence of cycloheximide by Western blotting analysis", "format": "cell-based"}, "[4]": {"biological_target": "T1, Protein cereblon/Tyrosine-protein kinase ABL1/Breakpoint cluster region protein", "assay": "Protac activity at CRBN/BCR-ABL in human K562 cells assessed as induction of c-ABL degradation at 100 nM pretreated with MLN4924 for 2 hrs followed by compound addition measured after 8 hrs by Western blotting analysis", "format": "cell-based", "conditions": "time 10.0 hrs"}, "[5]": {"biological_target": "T2, Signal transducer and activator of transcription 5A (Homo sapiens) (UniProt P42229)", "T2 sequence (whole entry)": "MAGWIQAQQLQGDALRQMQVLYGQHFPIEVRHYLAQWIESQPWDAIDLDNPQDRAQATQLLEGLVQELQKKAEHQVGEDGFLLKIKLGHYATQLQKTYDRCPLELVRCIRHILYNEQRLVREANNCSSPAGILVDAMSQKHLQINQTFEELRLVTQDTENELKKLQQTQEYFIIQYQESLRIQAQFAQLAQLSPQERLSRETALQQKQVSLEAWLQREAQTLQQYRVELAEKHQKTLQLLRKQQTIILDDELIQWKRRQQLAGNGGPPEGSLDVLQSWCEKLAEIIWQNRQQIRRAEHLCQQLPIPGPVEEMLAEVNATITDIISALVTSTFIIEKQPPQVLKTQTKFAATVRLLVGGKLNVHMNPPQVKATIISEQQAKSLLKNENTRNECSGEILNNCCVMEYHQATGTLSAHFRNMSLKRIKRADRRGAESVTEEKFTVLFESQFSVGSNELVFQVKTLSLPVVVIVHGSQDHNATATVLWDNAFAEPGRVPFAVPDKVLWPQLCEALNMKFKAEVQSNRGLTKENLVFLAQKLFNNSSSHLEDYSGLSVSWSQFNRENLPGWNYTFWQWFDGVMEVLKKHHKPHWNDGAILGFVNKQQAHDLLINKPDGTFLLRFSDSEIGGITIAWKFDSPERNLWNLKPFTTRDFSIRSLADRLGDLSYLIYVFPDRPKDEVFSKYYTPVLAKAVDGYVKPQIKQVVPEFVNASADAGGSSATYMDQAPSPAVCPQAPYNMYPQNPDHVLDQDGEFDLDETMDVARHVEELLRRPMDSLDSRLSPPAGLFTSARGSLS", "assay": "Inhibition of STAT5 phosphorylation at Tyr694 residue in human K562 cells at 100 nM by Western blotting analysis", "format": "cell-based", "conditions": "time <= 18.0 hrs, TDE = time-dependent effect"}, "[6]": {"biological_target": "T1, Protein cereblon/Tyrosine-protein kinase ABL1/Breakpoint cluster region protein", "assay": "Protac activity at CRBN/BCR-ABL in human K562 cells assessed as BCR-ABL turnover rate in presence of cycloheximide by Western blotting analysis", "format": "cell-based"}, "[7]": {"biological_target": "Crk-like protein (Homo sapiens) (UniProt P46109)", "sequence (P46109 whole entry)": "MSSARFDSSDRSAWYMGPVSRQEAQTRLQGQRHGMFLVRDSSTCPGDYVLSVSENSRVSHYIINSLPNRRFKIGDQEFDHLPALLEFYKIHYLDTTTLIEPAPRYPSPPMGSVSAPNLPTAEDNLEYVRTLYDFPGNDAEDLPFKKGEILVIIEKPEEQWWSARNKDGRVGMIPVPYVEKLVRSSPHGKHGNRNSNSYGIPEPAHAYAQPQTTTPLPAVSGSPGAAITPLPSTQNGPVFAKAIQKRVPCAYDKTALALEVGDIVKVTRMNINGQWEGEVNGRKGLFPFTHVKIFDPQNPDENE", "assay": "Inhibition of CRKL phosphorylation at Tyr207 residue in human K562 cells at 0.3 to 100 nM incubated for 16 hrs by Western blotting analysis", "format": "cell-based", "conditions": "dose 0.3-100 nM"}, "K562 [8]": {"test_system": "K562", "assay": "Down regulation of […] expression in human K562 cells at 100 nM measured after 16 hrs by LC-MS analysis", "format": "functional, cell-based"}, "K562 [9]": {"test_system": "K562", "assay": "Induction of cell death in human K562 cells assessed as inhibition of cell growth at 100 nM incubated for 6 hrs followed by compound washout measured upto 96 hrs", "format": "functional, cell-based"}, "[10]": {"test_system": "Protein cereblon/Tyrosine-protein kinase ABL1/Breakpoint cluster region protein (Mus musculus), P00519+P11274+Q8C7D2 [Y253H/E255V]", "assay": "Protac activity at CRBN/BCR-ABL Y253H/E255V double mutant in mouse 32D cells assessed as increase in p-BCR-ABL degradation at 1 to 1000 nM by Western blotting analysis", "format": "cell-based", "conditions": "dose 1-1000 nM"}, "[11]": {"biological_target": "T2, Signal transducer and activator of transcription 5A (Homo sapiens)", "assay": "Inhibition of STAT5 phosphorylation at Tyr694 residue in human K562 cells at 100 nM incubated for 6 hrs followed by compound washout measured upto 96 hrs by Western blotting analysis", "format": "cell-based"}, "[12]": {"test_system": "Protein cereblon/Tyrosine-protein kinase ABL1/Breakpoint cluster region protein (Mus musculus), P00519+P11274+Q8C7D2 [T315M]", "assay": "Protac activity at CRBN/asciminib resistance BCR-ABL T315M mutant in mouse 32D cells assessed as increase in BCR-ABL degradation at 1 to 1000 nM by Western blotting analysis", "format": "cell-based", "conditions": "dose 1-1000 nM"}, "[13]": {"assay": "Apparent permeability in human Caco-2 cells incubated for 120 mins by LC-MS/MS analysis", "format": "ADME, cell-based", "conditions": "caco-2, 2 h"}, "[14]": {"biological_target": "T1, Protein cereblon/Tyrosine-protein kinase ABL1/Breakpoint cluster region protein", "assay": "Protac activity at CRBN/BCR-ABL in human K562 cells assessed as increase in BCR-ABL degradation at 100 nM incubated for 6 hrs by Western blotting analysis", "format": "cell-based"}, "K562 [15]": {"test_system": "K562", "assay": "Cytotoxicity against human K562 cells assessed as inhibition of cell growth at 100 nM incubated for 6 hrs followed by compound washout measured upto 96 hrs", "format": "functional, cell-based"}, "[16]": {"biological_target": "T1, Protein cereblon/Tyrosine-protein kinase ABL1/Breakpoint cluster region protein", "assay": "Protac activity at CRBN/BCR-ABL in human K562 cells assessed as induction of BCR-ABL degradation at 100 nM pretreated with asciminib for 2 hrs followed by compound addition measured after 8 hrs by Western blotting analysis", "format": "cell-based", "conditions": "time 10.0 hrs"}, "K562 [17]": {"test_system": "K562", "assay": "cells", "conditions": "Homo sapiens, K562, 48 h", "description": "Antiproliferative activity against human K562 cells assessed as inhibition of cell growth incubated for 2 days by CCK8 assay"}, "[18]": {"biological_target": "Crk-like protein (Homo sapiens) (UniProt P46109)", "assay": "Inhibition of CRKL phosphorylation at Tyr207 residue in human K562 cells at 100 nM by Western blotting analysis", "format": "cell-based", "conditions": "time <= 18.0 hrs, TDE = time-dependent effect"}, "[19]": {"biological_target": "T2, Signal transducer and activator of transcription 5A (Homo sapiens)", "assay": "Inhibition of STAT5 phosphorylation at Tyr694 residue in human K562 cells at 0.3 to 100 nM incubated for 16 hrs by Western blotting analysis", "format": "cell-based", "conditions": "dose 0.3-100 nM"}, "[20]": {"biological_target": "Crk-like protein (Homo sapiens) (UniProt P46109)", "assay": "Inhibition of CRKL phosphorylation at Tyr207 residue in human K562 cells at 100 nM incubated for 6 hrs followed by compound washout measured upto 96 hrs by Western blotting analysis", "format": "cell-based"}, "K562 [21]": {"test_system": "K562", "assay": "Down regulation of IKZF3 expression in human K562 cells at 100 nM measured after 16 hrs by LC-MS analysis", "format": "functional, cell-based"}, "[22]": {"test_system": "Protein cereblon/Tyrosine-protein kinase ABL1/Breakpoint cluster region protein (Mus musculus), P00519+P11274+Q8C7D2 [F359V]", "assay": "Protac activity at CRBN/asciminib resistance BCR-ABL F359V mutant in mouse 32D cells assessed as increase in BCR-ABL degradation at 1 to 1000 nM by Western blotting analysis", "format": "cell-based", "conditions": "dose 1-1000 nM"}, "U-937": {"test_system": "U-937", "assay": "Antiproliferative activity against human U-937 cells assessed as inhibition of cell growth incubated for 2 days by CCK8 assay", "format": "functional, cell-based", "conditions": "time 2.0 day"}},
  "note": "The source made the active and inactive calls. The rule behind the calls is not given here.",
  "data": [
    {"compound": "O=C1CCC(N2Cc3c(SCCCCCCN4CCN(C5CCN(c6ncc(C(=O)Nc7ccc(OC(F)(F)Cl)cc7)cc6-c6ccn[nH]6)CC5)CC4)cccc3C2=O)C(=O)N1", "note": "(stereo not drawn)", "values": [
      {"measurement": "Activity", "setting": "[1]", "value": "Tde"},
      {"measurement": "Activity", "setting": "[2]", "value": "inactive"},
      {"measurement": "Activity", "setting": "[3]", "value": "Active"},
      {"measurement": "Activity", "setting": "[4]", "value": "inactive"},
      {"measurement": "inhibition", "setting": "[5]", "value": "Tde"},
      {"measurement": "Activity", "setting": "[6]", "value": "Active"},
      {"measurement": "inhibition", "setting": "[7]", "value": "Active"},
      {"measurement": "Activity", "setting": "K562 [8]", "value": "Active"},
      {"measurement": "Activity", "setting": "K562 [9]", "value": "Active"},
      {"measurement": "Activity", "setting": "[10]", "value": "Active"},
      {"measurement": "inhibition", "setting": "[11]", "value": "inactive"},
      {"measurement": "Activity", "setting": "[12]", "value": "Active"},
      {"measurement": "Papp", "setting": "[13]", "value": "Impermeable"},
      {"measurement": "Activity", "setting": "[14]", "value": "Active"},
      {"measurement": "Activity", "setting": "K562 [15]", "value": "Active"},
      {"measurement": "Activity", "setting": "[16]", "value": "inactive"},
      {"measurement": "IC50", "setting": "K562 [17]", "value": 12, "unit": "nM"},
      {"measurement": "inhibition", "setting": "[18]", "value": "Tde"},
      {"measurement": "inhibition", "setting": "[19]", "value": "Active"},
      {"measurement": "inhibition", "setting": "[20]", "value": "inactive"},
      {"measurement": "Activity", "setting": "K562 [21]", "value": "Active"},
      {"measurement": "Activity", "setting": "[22]", "value": "Active"},
      {"measurement": "Activity", "setting": "U-937", "value": "inactive"}
    ]}
  ]
}
